# From patent publication US20240343727A1, “PYRIDAZINONE OR PYRIDINONE COMPOUNDS, PREPARATION METHODS AND USES THEREOF” (InventisBio Co., Ltd., priority 2021, published 2024)
# Target: T1, PARP7 (Homo sapiens, UniProt Q7Z3E1)
# T1 sequence (Q7Z3E1 1-657): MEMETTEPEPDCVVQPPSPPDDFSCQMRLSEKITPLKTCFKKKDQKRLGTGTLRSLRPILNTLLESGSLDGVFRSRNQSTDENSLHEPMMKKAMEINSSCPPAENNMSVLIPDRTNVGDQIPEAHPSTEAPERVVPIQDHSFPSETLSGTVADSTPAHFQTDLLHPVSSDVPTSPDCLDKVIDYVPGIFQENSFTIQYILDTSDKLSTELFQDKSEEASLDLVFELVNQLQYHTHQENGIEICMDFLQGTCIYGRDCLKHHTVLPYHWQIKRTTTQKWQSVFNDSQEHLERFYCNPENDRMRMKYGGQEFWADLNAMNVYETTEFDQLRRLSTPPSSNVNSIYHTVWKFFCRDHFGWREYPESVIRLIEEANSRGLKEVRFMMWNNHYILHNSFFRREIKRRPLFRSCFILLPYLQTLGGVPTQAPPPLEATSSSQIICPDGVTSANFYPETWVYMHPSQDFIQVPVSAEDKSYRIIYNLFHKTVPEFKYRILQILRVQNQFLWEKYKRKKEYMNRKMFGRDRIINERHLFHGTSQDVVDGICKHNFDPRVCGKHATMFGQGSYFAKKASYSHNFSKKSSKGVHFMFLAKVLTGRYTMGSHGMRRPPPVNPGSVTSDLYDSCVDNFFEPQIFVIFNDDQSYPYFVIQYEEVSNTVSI
# Assay: PARP7 TR-FRET assay (binding, displacement of biotinylated Probe A)
# Settings: 6 nM PARP7, 2 nM Probe A, 25° C., 30 min
# Summary of the method: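 Compound displacement of biotinylated Probe A (2 nM) from PARP7 (6 nM) measured by TR-FRET in HEPES pH 8.0 buffer, 30 min at 25° C. Detection used ULight-anti 6xHis (4 nM) plus Eu-streptavidin (0.25 nM) for 30 min, reading the 665/615 nm ratio. % inhibition was taken against DMSO and no-enzyme wells, and IC50 from a Hill fit.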
row,SMILES,IC50 [nM]
1,O=C(c1cccc(Oc2n[nH]c(=O)c(C(F)(F)F)c2NC2CC(F)(F)C2)c1)N1CCN(c2ncc(C(F)(F)F)cn2)CC1 [Compound 167],< 100
2,"N#Cc1ccc(N2CCN(C(=O)CC3CN(c4cc(C(F)(F)F)c(=O)[nH]n4)c4cc(F)ccc4O3)CC2)nc1 (single isomer, unassigned) [Compound 268]",< 100
3,COC1CN(c2c(Oc3cncc(C(=O)N4CCN(c5ncc(C(F)(F)F)cn5)CC4)c3)n[nH]c(=O)c2C(F)(F)F)C1 [Compound 239],< 100
4,C[C@@H]1CN(C(=O)c2cc(Oc3n[nH]c(=O)c(C(F)(F)F)c3N3CC4(C3)CC(F)(F)C4)ccn2)CCN1c1ncc(Cl)cn1 [Compound 319],< 100
5,"N#Cc1ccc(N2CCN(C(=O)CC3CN(c4cc(C(F)(F)F)c(=O)[nH]n4)c4cc(C#N)ccc4O3)CC2)nc1 (single isomer, unassigned) [Compound 230]",100 to 1000
6,Cc1c(Oc2cc(C(=O)N3CCN(c4ncc(C(F)(F)F)cn4)CC3)ccc2C2CC2)n[nH]c(=O)c1C(F)(F)F [Compound 64],< 100
7,O=C(c1cccc(Oc2n[nH]c(=O)c(C(F)(F)F)c2N2CC3(CCC3)C2)c1)N1CCN(c2ncc(C3CC3)cn2)CC1 [Compound 226],< 100
8,O=C(c1cncc(Oc2n[nH]c(=O)c(C(F)(F)F)c2N2CC(C3CC3)C2)c1)N1CCN(c2ncc(C(F)(F)F)cn2)CC1 [Compound 278],< 100
9,C[C@@H]1C[C@H](OCC(=O)N2CCN(c3ncc(C(F)(F)F)cn3)CC2)c2n[nH]c(=O)c(C(F)(F)F)c2O1 [Compound 115],100 to 1000
10,C#Cc1c(C)c(Oc2cccc(C(=O)N3CCN(c4ncc(C(F)(F)F)cn4)CC3)c2)n[nH]c1=O [Compound 75],< 100
11,O=C(CC[C@@H]1COCCN1c1cc(C(F)(F)F)c(=O)[nH]n1)N1CCN(c2ncc(C(F)(F)F)cn2)CC1 [Compound 58],< 100
12,O=C(CO[C@@H]1C[C@@H](CC2CC2)Oc2c1n[nH]c(=O)c2C(F)(F)F)N1CCN(c2ncc(C(F)(F)F)cn2)CC1 (stereo in doubt) [Compound 144],< 100
13,O=C(c1cc(Oc2n[nH]c(=O)c(C(F)(F)F)c2N2CC3(C2)CC(F)(F)C3)ccn1)N1CCN(c2ncc(Cl)cn2)CC1 [Compound 307],< 100
14,O=C(c1cccc(Oc2n[nH]c(=O)c(C(F)(F)F)c2OCC2CCOCC2)c1)N1CCN(c2ncc(C(F)(F)F)cn2)CC1 [Compound 217],< 100
15,O=C(c1cccc(Oc2n[nH]c(=O)c(C(F)(F)F)c2N2CC3CC3C2)c1)N1CCN(c2ncc(C(F)(F)F)cn2)CC1 (stereo not drawn) [Compound 68],< 100
16,"O=C(CC1CN(c2cc(C(F)(F)F)c(=O)[nH]n2)c2ccccc2O1)N1CCN(c2ccc(Cl)cn2)CC1 (single isomer, unassigned) [Compound 260]",100 to 1000
17,CN(C)c1c(Oc2cccc(C(=O)N3CCN(c4ncc(C(F)(F)F)cn4)CC3)c2)n[nH]c(=O)c1C(F)(F)F [Compound 83],< 100
18,O=C(c1cncc(Oc2n[nH]c(=O)c(C(F)(F)F)c2N2CC3(C2)CC(F)(F)C3)c1)N1CCN(c2ncc(C(F)(F)F)cn2)CC1 [Compound 238],< 100
19,"O=C(CC1CN(c2cc(C(F)(F)F)c(=O)[nH]n2)c2cc(N3CCOCC3=O)ccc2O1)N1CCN(c2ncc(C(F)(F)F)cn2)CC1 (single isomer, unassigned) [Compound 281]",< 100
20,"CN1CC[C@@H](OCC(=O)N2CCN(c3ncc(C(F)(F)F)cn3)CC2)c2n[nH]c(=O)c(C(F)(F)F)c21 (single isomer, unassigned) [Compound 4]",< 100
21,N#Cc1ccc(N2CCN(C(=O)c3cccc(Oc4n[nH]c(=O)c(C(F)(F)F)c4N4CC5(C4)CC(F)(F)C5)c3)CC2)nc1 [Compound 333],< 100
22,O=C(c1cc(Oc2n[nH]c(=O)c(C(F)(F)F)c2N2CC3(C2)CC(F)(F)C3)ccn1)N1CCN(c2ncc(C3CC3)cn2)CC1 [Compound 308],< 100
23,O=C(c1cccc(Oc2n[nH]c(=O)c(C(F)(F)F)c2N2CC3(CCO3)C2)c1)N1CC2CCC(C1)N2c1ncc(C(F)(F)F)cn1 [Compound 257],< 100
24,CNC1CN(c2c(Oc3cccc(C(=O)N4CCN(c5ncc(C(F)(F)F)cn5)CC4)c3)n[nH]c(=O)c2C(F)(F)F)C1 [Compound 61],< 100

# The remaining lines, values ahead:
row,IC50 [nM],SMILES
1,100 to 1000,C[C@H]1CN(c2n[nH]c(=O)c3cccc(F)c23)C[C@@H](CC(=O)N2CCN(c3ncc(C(F)(F)F)cn3)CC2)O1 (stereo in doubt) [Compound 120]
2,< 100,O=C(CC1CN(c2n[nH]c(=O)c3c(F)cc(Cl)cc23)CCO1)N1CCN(c2ncc(C(F)(F)F)cn2)CC1 (stereo not drawn) [Compound 242]
3,< 100,"O=C(CC1CN(c2n[nH]c(=O)c3ccc(OCC(F)F)cc23)CCO1)N1CCN(c2ncc(C(F)(F)F)cn2)CC1 (single isomer, unassigned) [Compound 210]"
4,< 100,"O=C(CC1CN(c2n[nH]c(=O)c3cc(Cl)ccc23)CCO1)N1CCN(c2ncc(C(F)(F)F)cn2)CC1 (single isomer, unassigned) [Compound 99]"
5,< 100,"O=C(CC1CN(c2cc(C(F)(F)F)c(=O)[nH]n2)c2ccc(F)cc2O1)N1CCN(c2ncc(C(F)(F)F)cn2)CC1 (single isomer, unassigned) [Compound 157]"
6,< 100,"C#Cc1ccc2c(N3CCOC(CC(=O)N4CCN(c5ncc(C(F)(F)F)cn5)CC4)C3)n[nH]c(=O)c2c1 (single isomer, unassigned) [Compound 197]"
7,< 100,"N#CC1(c2ccc3c(c2)N(c2cc(C(F)(F)F)c(=O)[nH]n2)CC(CC(=O)N2CCN(c4ncc(C(F)(F)F)cn4)CC2)O3)CC1 (single isomer, unassigned) [Compound 338]"
8,100 to 1000,"O=C(CC1CN(c2cc(C(F)(F)F)c(=O)[nH]n2)c2ccccc2O1)N1CCN(c2ncc(Cl)cn2)CC1 (single isomer, unassigned) [Compound 295]"
9,100 to 1000,"O=C(CC1CN(c2n[nH]c(=O)c3cc(Cl)cc(F)c23)CCO1)N1CCN(c2ncc(C(F)(F)F)cn2)CC1 (single isomer, unassigned) [Compound 240]"
10,< 100,"O=C(CC1CN(c2cc(C(F)(F)F)c(=O)[nH]n2)c2cc(Cl)ccc2O1)N1CCN(c2ncc(C(F)(F)F)cn2)CC1 (single isomer, unassigned) [Compound 132]"
11,> 1000,C[C@@H]1CN(c2n[nH]c(=O)c3cccc(F)c23)C[C@H](CC(=O)N2CCN(c3ncc(C(F)(F)F)cn3)CC2)O1 (stereo in doubt) [Compound 119]
12,< 100,"N#Cc1cnc(N2CCN(C(=O)CC3CN(c4cc(C(F)(F)F)c(=O)[nH]n4)c4cc(F)ccc4O3)CC2)nc1 (single isomer, unassigned) [Compound 264]"
13,< 100,"O=C(CC1CN(c2n[nH]c(=O)c3c(F)cccc23)CCO1)N1CCN(c2ncc(C(F)(F)F)cn2)CC1 (single isomer, unassigned) [Compound 109]"
14,< 100,"Cn1ccc(-c2ccc3c(=O)[nH]nc(N4CCOC(CC(=O)N5CCN(c6ncc(C(F)(F)F)cn6)CC5)C4)c3c2)n1 (single isomer, unassigned) [Compound 259]"
15,< 100,O=C(CC[C@@H]1CCCN1c1n[nH]c(=O)c2c(F)cccc12)N1CCN(c2ncc(C(F)(F)F)cn2)CC1 [Compound 97]
16,> 1000,"O=C(CC1CN(c2n[nH]c(=O)c3cc(Cl)cc(F)c23)CCO1)N1CCN(c2ncc(C(F)(F)F)cn2)CC1 (single isomer, unassigned) [Compound 241]"
17,< 100,O=C(C[C@@H]1CN(c2n[nH]c(=O)c3ccc(N4CC(F)C4)cc23)CCO1)N1CCN(c2ncc(C(F)(F)F)cn2)CC1 [Compound 207]
18,100 to 1000,"O=C(CC1CN(c2n[nH]c(=O)c3ccc(F)cc23)CCO1)N1CCN(c2ncc(C(F)(F)F)cn2)CC1 (single isomer, unassigned) [Compound 51]"
19,< 100,"O=C(CC1CN(c2cc(C(F)(F)F)c(=O)[nH]n2)c2cc(C(F)F)ccc2O1)N1CCN(c2ncc(C(F)(F)F)cn2)CC1 (single isomer, unassigned) [Compound 228]"
20,100 to 1000,"O=C(CC1CN(c2n[nH]c(=O)c3ccc(C4CC4)cc23)CCO1)N1CCN(c2ncc(C(F)(F)F)cn2)CC1 (single isomer, unassigned) [Compound 105]"
21,< 100,"CC(C)(O)c1cnc(N2CCN(C(=O)CC3CN(c4cc(C(F)(F)F)c(=O)[nH]n4)c4cc(Cl)ccc4O3)CC2)nc1 (single isomer, unassigned) [Compound 151]"
22,> 1000,"O=C(CC1CN(c2n[nH]c(=O)c3cc(OCC(F)F)ccc23)CCO1)N1CCN(c2ncc(C(F)(F)F)cn2)CC1 (single isomer, unassigned) [Compound 208]"
23,< 100,"O=C(CC1CN(c2n[nH]c(=O)c3c(Cl)cccc23)CCO1)N1CCN(c2ncc(C(F)(F)F)cn2)CC1 (single isomer, unassigned) [Compound 98]"
24,> 1000,"O=C(CC1CN(c2n[nH]c(=O)c3cc(OCC(F)F)ccc23)CCO1)N1CCN(c2ncc(C(F)(F)F)cn2)CC1 (single isomer, unassigned) [Compound 209]"
